Source: PubChem BioAssay (NCI)
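Results reflect a 48-hour exposure of cells in 96-well plates to compound at five concentrations. GI50 is the concentration that inhibits growth by half. The concentration for full growth arrest is given as TGI.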

Assays:
Test in all cases: growth of human tumour cells (NCI), 48 h
TK-10 renal = test system: TK-10 renal
HCT-116 colon = test system: HCT-116 colon
OVCAR-4 ovarian = test system: OVCAR-4 ovarian
SK-OV-3 ovarian = test system: SK-OV-3 ovarian
CCRF-CEM leukemia = test system: CCRF-CEM leukemia
IGROV1 ovarian = test system: IGROV1 ovarian
NCI-H460 lung = test system: NCI-H460 lung
K-562 leukemia = test system: K-562 leukemia
SK-MEL-28 melanoma = test system: SK-MEL-28 melanoma
EKVX NSCLC = test system: EKVX NSCLC

| SMILES | TGI (TK-10 renal) [µM] | TGI (HCT-116 colon) [µM] | TGI (OVCAR-4 ovarian) [µM] | TGI (SK-OV-3 ovarian) [µM] | TGI (CCRF-CEM leukemia) [µM] | TGI (IGROV1 ovarian) [µM] | TGI (NCI-H460 lung) [µM] | TGI (K-562 leukemia) [µM] | TGI (SK-MEL-28 melanoma) [µM] | TGI (EKVX NSCLC) [µM] | GI50 (SK-MEL-28 melanoma) [nM] | GI50 (HCT-116 colon) [pM] | GI50 (EKVX NSCLC) [µM] | GI50 (OVCAR-4 ovarian) [pM] | GI50 (SK-OV-3 ovarian) [nM] | GI50 (CCRF-CEM leukemia) [nM] | GI50 (IGROV1 ovarian) [pM] | GI50 (K-562 leukemia) [nM] | GI50 (TK-10 renal) [µM] | GI50 (NCI-H460 lung) [µM] |
| --- | --- | --- | --- | --- | --- | --- | --- | --- | --- | --- | --- | --- | --- | --- | --- | --- | --- | --- | --- | --- |
| COc1ccc2cc(/C=N/NC(=O)Nc3ccccc3)ccc2c1 | > 100 | > 100 | > 100 | > 100 | > 100 | > 100 | > 100 | > 100 |  |  |  |  |  |  |  |  |  |  |  |  |
| CC(OC(C)(C)C)[C@H](NC(=O)OCC(Cl)(Cl)Cl)C(=O)O (stereo partly specified) | > 100 | > 100 | > 100 | > 100 | > 100 | > 100 | > 100 | > 100 | > 100 | > 100 |  |  |  |  |  |  |  |  |  |  |
| O=c1cnn(C/C=C/CO)c(=O)[nH]1 | > 100 |  |  |  | > 100 | > 100 | > 100 | > 100 | > 100 | > 100 |  |  |  |  |  |  |  |  |  |  |
| Cc1[nH]nc(C(F)(F)F)c1N=NN1CCOCC1 | 26.7 | 6.12 | 15.1 | 31.7 | 10.8 | 22.6 | 17.1 | 2.4 | 32.7 | 21.3 |  |  |  |  |  |  |  |  |  |  |
| O=C(O)CCC(NC(=O)c1ccc(Nc2nc3cc(C(F)(F)F)ccc3nc2-c2ccccc2)cc1)C(=O)O (stereo unspecified) |  | > 100 | > 100 | > 100 | > 100 | > 100 | > 100 | > 100 | > 100 | > 100 |  |  |  |  |  |  |  |  |  |  |
| CC1(CCOCc2ccccc2)NC(=O)NC1=O (stereo unspecified) | > 100 | > 100 | > 100 |  |  | > 100 | > 100 | > 100 | > 100 | > 100 |  |  |  |  |  |  |  |  |  |  |
| CCC(/C=C/C1OC(=O)C=CC1C)=C\C(C)C/C=C/C(C)=C/C(C)C(=O)C(C)C(O)C(C)C/C(C)=C/C(=O)O (stereo unspecified) |  |  |  | 14.3 |  | 16 |  |  |  | 11.4 | 0.00451 | < 1 | 1.29 | < 1 | 0.0954 | < 0.001 | 7.48 | < 0.001 |  |  |
| C=C(C)[C@@H]1CC[C@]2(C(=O)NC3CCCCC3)CC[C@]3(C)[C@H](CC[C@@H]4[C@@]5(C)CCCNC(C)(C)[C@@H]5CC[C@]43C)[C@@H]12 | 3.6 |  |  | 3.26 | 6.68 |  | 3.3 |  |  |  |  |  |  |  | 1770 | 2300 |  |  | 1.87 | 1.78 |
| c1ccc(CCNc2ccccn2)nc1 | > 100 | > 100 | > 100 | > 100 | > 100 | > 100 | > 100 |  | > 100 | > 100 |  |  |  |  |  |  |  |  |  |  |
| CC1(C)N=C(N)N=C(N)N1c1ccc(CCc2ccccc2)cc1 |  | > 100 | > 100 | > 100 | > 100 | 5.28 | > 100 | > 100 | > 86.7 | 91.5 |  |  |  |  |  |  |  |  |  |  |
| O=C(Cn1c[n+](CC(=O)c2ccc(-c3ccccc3)cc2)c2ccccc21)Nc1cccc2cccnc12 | 3.74 |  |  |  |  |  |  | > 100 | 2.83 | 4.13 | 1510 |  | 1.63 |  |  |  |  | 639 | 2.01 |  |
| NCc1ccccc1-c1c2nc(c(-c3ccccc3CN)c3ccc([nH]3)c(-c3ccccc3CN)c3nc(c(-c4ccccc4CN)c4ccc1[nH]4)C=C3)C=C2 | 63.1 | 32.5 | 51.2 |  | 27.1 | 59.4 | 66.7 | 35.5 | 43.4 | 48.7 |  |  |  |  |  |  |  |  |  |  |
